The values below come from US20120219543A1, “METHODS AND PHARMACEUTICAL COMPOSITIONS FOR THE TREATMENT OF DISORDERS OF GLUCOSE HOMEOSTASIS” (priority 2009, published 2012).

In data set [1] the test system is beta cell mass of embryos of pregnant mice. Put plainly: In vivo administration to pregnant mice, insulin staining surface of embryonic pancreas. Particulars: E12.5 pregnant mice, 10 mg/kg/day for 5 days, intraperitoneal, embryos harvested at E18.5. How it is done: To evaluate its effects in vivo, GlyH 101 was administrated to a E12.5 pregnant mice for 5 days at 10 mg/kg/day (according to Yang et al. 2008) in a saline DMSO solution ([…]) by intraperitoneal injection two times a day. The embryos were harvested at E18.5 and the pancreas fixed for histological immunostaining. The surface of insulin staining was quantified and normalized to the whole pancreatic tissue.

Data set [2] concerns E13.5 Rat embryonic pancreases. As to the kind of experiment: Organ culture of E13.5 rat embryonic pancreases: morphology, immunohistochemistry and surface/cell quantification. It is filed as cell-based. The text has this:
(§1) Pregnant Wistar rats were purchased from the Janvier Breeding centre (CERJ, LeGenet, France). Cftr-knockout (Cftr−/−) and wild-type (Cftr+/+) embryos were obtained from the progeny of heterozygous-heterozygous for the S489X mutation (Snouwaert et al. 1992) matings (CDTA, Orléans, France). The first day postcoitum was taken as embryonic day (E)0.5. Pregnant rats were killed with CO2 asphyxiation and pregnant mice by cervical dislocation according to guidelines issued by the French Animal Care Committee. Dorsal pancreatic buds from E13.5 rat and E12.5 mice embryos were dissected as described previously (Miralles et al. 1998). Briefly, the stomach, pancreas and a small portion of the intestine were dissected together, and then the pancreas primordium was isolated.
(§2) Dorsal pancreatic rudiments were cultured on 0.45 μm filters (Millipore) at the air-medium interface in a 35 mm sterile Petri dishes containing 2 ml RPMI-1640 medium (Invitrogen) supplemented with 100 U/ml penicillin, 100 μg/ml streptomycin, 10 mmol/L HEPES, 2 mmol/L L-glutamine, 1× non-essential aminoacids (Invitrogen) and 10% heat-inactivated fetal calf serum (HyClone, Logan, Utah, USA). Glibenclamide (MP Biomedical), and Glycine hydrazide (GlyH-101)(Calbiochem), used at the indicated concentrations, were first dissolved as concentrated solutions in dimethylsulfoxide DMSO (Sigma), the final concentration of DMSO in the culture medium was less than 0.5% (vol/vol). Glibenclamide and GlyH-101 were added to the media daily. The cultures were incubated at 37° C. in a humidified atmosphere composed of 95% air and 5% CO2. At the end of the culture period, the pancreases were photographied, and fixed as described below or harvested for RNA extraction.
The pancreatic rudiments were fixed in 10% formalin, pre-embedded in agarose gel (4% of type VII low-gelling-temperature agarose [Sigma] in H2O) and embedded in paraffin. Immunohistochemistry was performed on 4-μm paraffin sections as previously described) (Duvillie et al. 2006). The primary antibodies were mouse anti insulin (1/2000; Sigma), rabbit anti-glucagon (1/1000; Diasorin), rabbit anti-amylase (1/300; Sigma), rabbit anti-carboxypeptidase A (CPA) (1/600; Biogenesis, Kidlington, Oxford, UK), rabbit anti-PDX1 (1/1000) (Duvillie et al. 2006) mouse anti-BrdU (1/2; Amersham Biosciences, Buckingham, UK), rabbit anti-Proprotein Convertase Subtilisin/Kexin 1/3 (PCSK1/3), rabbit anti-Ngn3 (1/100, (Guillemain et al. 2007) The fluorescent secondary antibodies were fluorescein anti-rabbit antibody (1/200; Jackson Immunoresearch, Baltimore, Md., USA), fluorescein goat anti-rabbit Alexa Fluor 488 (1/400; Invitrogen) and Texas red anti-mouse antibody (1/200; Jackson). Nuclei were stained in blue with Hoechst 33342 (0.3 μg/ml; Invitrogen). Ngn3 detection was performed as previously described (Guillemain et al. 2007) using the Vectastain elite ABC kit (Vector laboratories).
(§3) To quantify the surface area of insulin, glucagon, PCSK1/3, CPA and amylase-expressing cells, all sections of each pancreatic rudiment were digitized. Alternate sections were examined to avoid counting the same cell twice. The surface of insulin, glucagon, PCSK1/3, CPA, amylase and Hoechst stainings were quantified using Iplab (Scanalytics). The stained areas were summed to obtain the total surface area per rudiment in mm^2. To measure proliferation of the early progenitors expressing PDX1, we counted the frequency of BrdU positive progenitors expressing PDX1 among 3000 early progenitors expressing PDX1 per rudiment. To quantify the absolute number of NGN3-expressing cells, pancreatic rudiments were sectioned and all sections were stained with an anti-NGN3 antibody. Positive cells were counted on all sections of each pancreatic rudiment. A minimum of three rudiments was analyzed per condition.

The subject of data set [3] is mRNA transcripts (insulin, MafA, ZnT-8, Ngn3, NeuroD1, Pou3F4, somatostatin) in E13.5 Rat pancreases. As to the kind of experiment: Real-time PCR of mRNA transcripts in cultured E13.5 rat pancreases. The format is cell-based. The following applies: for insulin mRNA level increase / ZnT-8 and MafA expression: Glib 5D.
Source text: as §1, §2
Total RNA was isolated from pools of at least three pancreases using the Qiagen RNeasy Microkit (Qiagen, Courtaboeuf, France) and reverse transcribed using Superscript reagents (Invitrogen). Real-time PCR was performed with the 7300 Fast real-time PCR system (Applied Biosystem) using either Taqman universal PCR master mix or SYBR green PCR master mix (Applied Bio system) with primers and labelled probes specific for each gene. Peptidylpropyl isomerase A/Cyclophilin A was used as endogenous control and E16.5 pancreas cDNA as calibrator sample. The data were analyzed by comparative cycle threshold method (Livak and Schmittgen 2001) and presented as the fold change in gene expression. At least three pools of explants were analysed by condition.
Background: Quantitative PCR measures a nucleic acid by following its amplification.

Data set [4] deals with E13.5 Rat embryonic pancreases (PDX-1+ progenitors, insulin-expressing cells). As to the kind of experiment: BrdU incorporation (proliferation) in cultured E13.5 rat pancreases. The format is cell-based. The following applies: 10 μM GlyH-101, D5, BrdU during last hour. On the procedure: as §2, with “Glibenclamide and GlyH-101 were added to the media daily. The cultures were incubated at 37° C. in a humidified atmosphere composed of 95% air and 5% CO2. At the end of the culture period, the pancreases were photographied, and fixed as described below or harvested for RNA extraction.” left out
as §3, with “Alternate sections were examined to avoid counting the same cell twice.” left out, “The stained areas were summed to obtain the total surface area per rudiment in mm^2.” left out, “A minimum of three rudiments was analyzed per condition.” left out
In general terms: Dividing cells build labelled thymidine or BrdU into new DNA.

Data set [5] concerns E12.5 pancreases from WT (CFTR+/+) mice. Put plainly: Organ culture of E12.5 pancreases from WT (Cftr+/+) mice, insulin-positive cell area. It is filed as cell-based. Particulars: 10 μM GlyH-101, 6 days of culture. On the procedure:
(§4) FIG. 1: Effects of GlyH-H101 on endocrine cell development. Quantification by real-time PCR of insulin (A) and MafA (B) mRNA transcripts in E 13.5 Rat pancreases before (D0) and after 1, 3, 5 and 7 days of culture (D1, D3, D5 and D7 respectively) with or without 10 μM GlyH-101. Each data point represents the mean±sem of at least four independent experiments ***, p<0.001. (C) Immunohistological analysis of E13.5 Rat pancreases cultured 5 days in the presence or in absence of 10 μM GlyH-101. Insulin and amylase staining were respectively in red and green. Nuclei were stained in blue with Hoechst. Scale bar: 50 μm (D). β cell differentiation was evaluated by quantification of the absolute surface area occupied by insulin staining in E 13.5 Rat pancreases after 5 days of culture in presence or in absence of 10 μM GlyH-101. Values are means±sem of at least three independent experiments *, p<0.05; (E) Quantification by real-time PCR of Ngn3 transcripts in E13.5 Rat pancreases before (D0) and after 1, 3, 5 and 7 days of culture (D0, D1, D3, D5 and D7 respectively) with or without 10 μM GlyH-101. […] (G) Quantification of the number of NGN3 positive-cells in E13.5 Rat pancreases cultured for 5 days in presence or in absence of 10 μM GlyH-101. […]
(§5) To quantify the surface area of insulin, glucagon, PCSK1/3, CPA and amylase-expressing cells, all sections of each pancreatic rudiment were digitized. […]

The subject of data set [6] is E12.5 pancreases from knockout (CFTR-/-) mice. As to the kind of experiment: Organ culture of E12.5 pancreases from Cftr knockout (Cftr-/-) mice, insulin-positive cell area. Particulars: 10 μM GlyH-101, 6 days of culture. The format is cell-based. How it is done: as §4, §5
For the next data set, the target named is CFTR channel (Homo sapiens, UniProt P13569). The following applies: open-channel block mechanism; cited from earlier work.
Sequence of CFTR channel (P13569 whole entry): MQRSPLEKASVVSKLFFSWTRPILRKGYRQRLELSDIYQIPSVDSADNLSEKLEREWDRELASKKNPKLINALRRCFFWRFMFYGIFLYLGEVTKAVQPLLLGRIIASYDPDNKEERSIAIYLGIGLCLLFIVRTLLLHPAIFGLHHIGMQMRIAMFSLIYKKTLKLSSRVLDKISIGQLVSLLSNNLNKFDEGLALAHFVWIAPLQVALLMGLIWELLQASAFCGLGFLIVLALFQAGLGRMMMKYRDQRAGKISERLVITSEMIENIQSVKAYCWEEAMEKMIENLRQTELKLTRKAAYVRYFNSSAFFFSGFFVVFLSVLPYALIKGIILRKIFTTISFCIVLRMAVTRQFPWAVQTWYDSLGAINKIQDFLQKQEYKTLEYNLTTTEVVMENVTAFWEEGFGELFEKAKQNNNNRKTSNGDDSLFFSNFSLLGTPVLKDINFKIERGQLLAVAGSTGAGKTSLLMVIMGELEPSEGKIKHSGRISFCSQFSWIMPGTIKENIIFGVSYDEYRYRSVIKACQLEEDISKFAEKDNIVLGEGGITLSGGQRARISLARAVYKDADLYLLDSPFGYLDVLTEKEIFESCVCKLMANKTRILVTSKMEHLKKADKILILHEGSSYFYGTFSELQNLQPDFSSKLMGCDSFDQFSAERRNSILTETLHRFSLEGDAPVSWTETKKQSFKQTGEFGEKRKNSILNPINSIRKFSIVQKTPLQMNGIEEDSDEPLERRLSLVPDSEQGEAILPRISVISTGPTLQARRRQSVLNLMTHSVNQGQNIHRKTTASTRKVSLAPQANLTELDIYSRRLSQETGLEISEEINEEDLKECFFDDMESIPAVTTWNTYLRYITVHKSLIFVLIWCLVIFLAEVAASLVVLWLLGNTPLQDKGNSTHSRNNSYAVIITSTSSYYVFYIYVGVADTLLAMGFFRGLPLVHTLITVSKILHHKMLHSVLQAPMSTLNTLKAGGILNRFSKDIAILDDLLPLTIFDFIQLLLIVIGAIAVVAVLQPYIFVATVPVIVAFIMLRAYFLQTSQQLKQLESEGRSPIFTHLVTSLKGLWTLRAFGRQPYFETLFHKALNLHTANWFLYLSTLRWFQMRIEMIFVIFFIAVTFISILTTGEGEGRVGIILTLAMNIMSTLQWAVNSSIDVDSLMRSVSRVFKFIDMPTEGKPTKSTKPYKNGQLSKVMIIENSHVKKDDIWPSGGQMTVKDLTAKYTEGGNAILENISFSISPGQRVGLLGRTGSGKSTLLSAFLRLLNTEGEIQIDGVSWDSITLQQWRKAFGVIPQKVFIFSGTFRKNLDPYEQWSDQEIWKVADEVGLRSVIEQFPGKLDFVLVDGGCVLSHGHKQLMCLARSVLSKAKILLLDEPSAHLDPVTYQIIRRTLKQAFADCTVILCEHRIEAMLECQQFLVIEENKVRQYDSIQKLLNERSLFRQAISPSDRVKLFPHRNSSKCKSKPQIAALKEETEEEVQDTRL
In data set [7] the test system is human liver cell line HepG2. The following applies: HepG2 cultured with 100 μM glibenclamide; cited from earlier work.
Setting [8] is: 100 μM, 7 days of culture, vs absence.

Entries after “also recorded” stand apart in the source; their conditions may differ.

With `O=C(CNc1ccc2ccccc2c1)NN=Cc1cc(Br)c(O)c(Br)c1O` [GlyH-101, N-2-napthalenyl-[(3,5-dibromo-2,4-dihydroxyphenyl)methylene]glycine hvdrazide], in data set [1], the “beta cell mass (insulin staining surface normalized to whole pancreatic tissue)” value is “increased”. Moreover, the exocrine differentiation result in data set [2] (10 μM GlyH-101) is “did not observe any effects”. Moreover, the “area occupied by insulin-positive cells” value in data set [2] (10 μM GlyH-101, 5 days of culture) was “dramatic increase”. The “pool/number of Ngn3+ pancreatic endocrine progenitor cells” value in data set [2] (10 μM GlyH-101, D5) is “increased number; also recorded: amplified and maintained”. Further, in data set [3] (10 μM GlyH-101, D3), the “increase of MafA mRNA transcripts” value is listed as “more than twofold” and the “increase of insulin mRNA transcripts” value is recorded as “more than twofold”. Moreover, the “increase in Ngn3 expression (real-time PCR)” value in data set [3] (10 μM GlyH-101, D5) was 8 fold. In addition, in data set [3] (10 μM GlyH-101, after 5 and 7 days of culture), the insulin expression entry was “sixfold”. In addition, the “Ngn3 expression (real-time PCR)” value in data set [3] (10 μM GlyH-101, from D1) was “strong increase”. In addition, the “proliferative rate of insulin-expressing cells (BrdU)” value in data set [4] is reported as “No differences”. In addition, the “insulin+ cell area” value in data set [5] is reported as “increase”. In addition, the “insulin+ cell area” value in data set [6] was “unable to modify”.

In the case of `COc1ccc(Cl)cc1C(=O)NCCc1ccc(S(=O)(=O)NC(=O)NC2CCCCC2)cc1` [glibenclamide], the pancreatic growth entry in data set [2] (10 nM, 100 nM, 1, 10 or 100 μM glibenclamide vs control, 7 days of culture) is “similar”. Further, in data set [2] (100 μM, 5 days of culture, vs absence), the “number of NGN3+ cells (immunohistochemistry)” value is listed as “threefold”. Besides, the “increase of the number of glucagon-expressing cells” value in data set [2] (100 μM, 7 days of culture) was 3.5 fold. Besides, the “decrease of surface area occupied by the insulin-cell population” value in data set [2] (setting [8]) came to 70%. Besides, in data set [2] (setting [8]), the “surface area occupied by amylase- and carboxypeptidaseA-positive cells” value is “No differences”. For the same compound, in data set [2] (100 μM, 7 days of culture, vs without), the “surface area occupied by PCSK1/3 staining in PDX-1+ cells” value is reported as “similar”. Besides, the “exocrine (acinar and ductal) development” value in data set [2] (100 μM, 7 days, amylase, carboxypeptidaseA, SPP1 and CFTR markers) is reported as “did not to modify”. In data set [2] (10 and 100 μM, 7 days of culture, vs without), the “apoptosis (Hoechst staining of the nuclei)” value is given as “no difference”. Moreover, in data set [2] (10 or 100 μM, 7 days of culture), the “overall size of pancreases (quantitative analysis)” value is on record as “lack of glibenclamide toxicity”. Also, the “insulin-staining area (insulin-positive cells)” value in data set [2] (Glib 5D-treated pancreas) is “significant increase”. In addition, the insulin-expressing cells observed result in data set [2] (Glib-5D pancreases at D9, D11 or D14) was “A large number”. Further, in data set [2] (glibenclamide present throughout 9, 11 or 14 days of culture), the insulin-containing cells detected result was “less”. The pancreas development entry in data set [2] (up to 1 micromolar) is “did not affect”. Also, the CFTR channel inhibition entry at CFTR channel is “inhibits CFTR channel in a dose-dependant manner”. Besides, the NeuroD1 expression entry was “significantly increased; also recorded: twofold” in data set [3] (100 μM, D5) and “enhanced” in data set [3] (100 μM, D7). In addition, the “Pou3F4/Brn4 mRNA level” value in data set [3] (100 μM, D7) is recorded as “significant increase”. Besides, the “NeuroD1 mRNA levels” value in data set [3] (100 μM, after 1 and 3 days of culture, vs absence) is “similar”. For the same compound, in data set [3] (100 μM, after 5 days of culture, p<0.001), the Ngn3 expression increase result was “sevenfold; also recorded: seven”. In addition, in data set [3] (100 μM, after 7 days of culture), the “increase in somatostatin expression” value is “twofold”. The “Ngn3 mRNA level” value in data set [3] (100 μM, after 7 days of culture, p<0.001) is “dramatically higher; also recorded: threefold”. Also, the “insulin expression (real-time PCR)” value in data set [3] (100 μM, as early as D3) is “strongly reduced”. The Ngn3 expression result in data set [3] (100 μM, day 1 and 3, vs absence) was “similar”. Also, the “expression of β-cell markers ZnT-8 and MafA” value in data set [3] (100 μM, over the 7 days of culture) is “did not affect”. Also, the “reversal of low insulin content and reduced insulin gene transcription” value in data set [3] (2 days after glibenclamide removal) was “completely reverted”. Moreover, the “insulin mRNA level increase” value in data set [3] (D9, vs without) was “threefold”; in data set [3] (D11, vs without), “twofold”; in data set [3] (D14, vs without), “threefold”. The “ZnT-8 and MafA expression” value in data set [3] (after 9, 11 and 14 days of culture, p<0.01) is given as “dramatic increase”; in data set [3] (after 7 days of culture), “similar”. Moreover, the “insulin mRNA level” value in data set [3] (glibenclamide only first 5 days of culture (Glib 5D), D7, vs without) was “identical”. The toxicity and apoptosis entry in data set [7] is listed as “no toxicity nor apoptosis”.
